Results published in patent US10441663B2, “Methods for treating cancer” (Bicycle Therapeutics Limited, priority 2016, dated 2019).
*1 amine or outer side, *2 acyl side, *3 side chain or, on linkers, in order; H or OH if unused. Where a SMILES comes first, the peptide text is derived from it. Bridges are numbered along the chain shown (N, C = ends). [ ]: non-standard residue; d: D form. The star is where a group is joined. X1 = COc1cc2cc(c1Cl)N(C)C(=O)C[C@H](OC(=O)[C@H](C)N(C)C(=O)CCSSC(C)CCC(=O)*)[C@]1(C)O[C@H]1[C@H](C)[C@@H]1C[C@@](O)(NC(=O)O1)[C@H](OC)/C=C/C=C(\C)C2; 1Nal = N[C@@H](Cc1cccc2ccccc12)C(=O)O; TBMB = c1c(C[*:1])cc(C[*:3])cc1C[*:2]; Tle = CC(C)(C)[C@H](N)C(=O)O; βAla = NCCC(=O)O; Sar = CNCC(=O)O

Key:
[1] = system: NCI-H1975 xenograft; test: In vivo efficacy of BT1718 in NCI-H1975 xenograft; set-up: species or system Mus Musculus; key to Best response at 10 mg/kg: CR complete response; PR partial response
Protocol: (§1) The objective of this study was to evaluate the in vivo anti-tumor efficacy of BT1718in treatment of HT1080, NCI-H292, NCI-H1975, MDA-MB-231, HCC1806, RPMI2650, HCT-15, HT-29 and SNU-16 xenograft in BALB/c nude mice.
(§2) The HT1080, NCI-H292, NCI-H1975, MDA-MB-231, HCC1806, RPMI2650, HCT-15, HT-29 and SNU-16 tumor cells were maintained in vitro as a monolayer culture in medium supplemented with 10% heat inactivated fetal bovine serum at 37° C. in an […]. The tumor cells will be routinely subcultured twice weekly by trypsin-EDTA treatment. The cells growing in an exponential growth phase will be harvested and counted for tumor inoculation.
(§3) Mouse was inoculated subcutaneously at the right flank with tumor cells for tumor development. The animals were randomized and treatment was started when the average tumor reaches certain volume for the efficacy study, the inoculating cell amounts and starting tumor size were shown as below in Table 9. The test article administration and the animal numbers in each group were shown in the experimental design in Table 10.
(§4) All the procedures related to animal handling, care and the treatment in the study were performed according to the guidelines of the Association for Assessment and Accreditation of Laboratory Animal Care (AAALAC). At the time of routine monitoring, the animals were daily checked for any effects of tumor growth and treatments on normal behavior such as mobility, food and water consumption (by looking only), body weight gain/loss (body weights were measured every day), eye/hair matting and any other abnormal effect as stated in the protocol. Death and observed clinical signs were recorded on the basis of the numbers of animals within each subset.
(§5) The major endpoint was to see if the tumor growth could be delayed or mice could be cured. Tumor size was measured three times weekly in two dimensions using a caliper, and the volume was expressed in mm^3 using the formula: V=0.5 a×b^2 where a and b are the long and short diameters of the tumor, respectively. The tumor size was then used for calculations of T/C value. The T/C value (in percent) is an indication of antitumor effectiveness; T and C are the mean volumes of the treated and control groups, respectively, on a given day.
(§6) TGI was calculated for each group using the formula: TGI (%)=[1−(Ti−T0)/(Vi−V0)]×100; Ti is the average tumor volume of a treatment group on a given day, T0 is the average tumor volume of the treatment group on the day of treatment start, Vi is the average tumor volume of the vehicle control group on the same day with Ti, and V0 is the average tumor volume of the vehicle group on the day of treatment start.
(§7) Summary statistics, including mean and the standard error of the mean (SEM), are provided for the tumor volume of each group at each time point.
(§8) Statistical analysis of difference in tumor volume among the groups was conducted on the data obtained at the best therapeutic time point after the final dose.
(§9) A one-way ANOVA was performed to compare tumor volume among groups, and when a significant F-statistics (a ratio of treatment variance to the error variance) was obtained, comparisons between groups were carried out with Games-Howell test. All data were analyzed using Prism. P<0.05 was considered to be statistically significant.

[2] = system: RPMI2650 xenograft; test: In vivo efficacy of BT1718 in RPMI2650 xenograft; set-up: species or system Mus Musculus; key to Best response at 10 mg/kg: CR complete response; PR partial response
Protocol: as §1, §2, §3, §4, §5, §6, §7, §8, §9

SMILES: COc1cc2cc(c1Cl)N(C)C(=O)C[C@H](OC(=O)[C@H](C)N(C)C(=O)CCSSC(C)CCC(=O)NCCC(=O)N(C)CC(=O)N(C)CC(=O)N(C)CC(=O)N(C)CC(=O)N(C)CC(=O)N(C)CC(=O)N(C)CC(=O)N(C)CC(=O)N(C)CC(=O)N(C)CC(=O)N[C@@H](C)C(=O)N[C@H]1CSCc3cc4cc(c3)CSC[C@H](NC(=O)[C@@H](C)NC(=O)[C@H](Cc3cccc5ccccc35)NC(=O)[C@H](CCC(=O)O)NC(=O)[C@H](CC(N)=O)NC(=O)[C@@H](C)NC1=O)C(=O)N[C@@H](CCC(=O)O)C(=O)N[C@@H](CC(=O)O)C(=O)N[C@@H](Cc1ccccc1)C(=O)N[C@@H](Cc1ccc(O)cc1)C(=O)N[C@@H](CC(=O)O)C(=O)N[C@@H](C(C)(C)C)C(=O)N[C@H](C(N)=O)CSC4)[C@]1(C)O[C@H]1[C@H](C)[C@@H]1C[C@@](O)(NC(=O)O1)[C@H](OC)/C=C/C=C(\C)C2 (stereo partly shown) [BT1718] ({X1-βAla}-[Sar][Sar][Sar][Sar][Sar][Sar][Sar][Sar][Sar][Sar]AC[dA]NE[1Nal][dA]CEDFYD[Tle]C-NH2; linker 12-18-25 via TBMB (inferred))
- Body Weight ([1]; 1 mpk biw, day 0): 23.9 ± 0.7 g
- Tumor Volume ([1]; 1 mpk biw, day 0): 170 ± 9 mm^3
- Body Weight ([1]; 1 mpk biw, day 2): 23.5 ± 0.7 g
- Tumor Volume ([1]; 1 mpk biw, day 2): 224 ± 33 mm^3
- Body Weight ([1]; 1 mpk biw, day 4): 24.0 ± 0.9 g
- Tumor Volume ([1]; 1 mpk biw, day 4): 352 ± 69 mm^3
- Body Weight ([1]; 1 mpk biw, day 7): 24.4 ± 0.7 g
- Tumor Volume ([1]; 1 mpk biw, day 7): 587 ± 134 mm^3
- Body Weight ([1]; 1 mpk biw, day 9): 24.6 ± 0.8 g
- Tumor Volume ([1]; 1 mpk biw, day 9): 840 ± 155 mm^3
- Body Weight ([1]; 1 mpk biw, day 11): 25.2 ± 1.1 g
- Tumor Volume ([1]; 1 mpk biw, day 11): 1265 ± 144 mm^3
- Body Weight ([1]; 1 mpk biw, day 14): 26.0 ± 1.0 g
- Tumor Volume ([1]; 1 mpk biw, day 14): 1455 ± 130 mm^3
- Body Weight ([1]; 3 mpk biw, day 0): 23.6 ± 0.4 g
- Tumor Volume ([1]; 3 mpk biw, day 0): 166 ± 13 mm^3
- Body Weight ([1]; 3 mpk biw, day 2): 23.6 ± 0.5 g
- Tumor Volume ([1]; 3 mpk biw, day 2): 241 ± 20 mm^3
- Body Weight ([1]; 3 mpk biw, day 4): 24.0 ± 0.8 g
- Tumor Volume ([1]; 3 mpk biw, day 4): 377 ± 38 mm^3
- Body Weight ([1]; 3 mpk biw, day 7): 24.8 ± 0.8 g
- Tumor Volume ([1]; 3 mpk biw, day 7): 605 ± 84 mm^3
- Body Weight ([1]; 3 mpk biw, day 9): 24.4 ± 0.9 g
- Tumor Volume ([1]; 3 mpk biw, day 9): 732 ± 95 mm^3
- Body Weight ([1]; 3 mpk biw, day 11): 25.1 ± 0.8 g
- Tumor Volume ([1]; 3 mpk biw, day 11): 1095 ± 207 mm^3
- Body Weight ([1]; 3 mpk biw, day 14): 25.0 ± 0.7 g
- Tumor Volume ([1]; 3 mpk biw, day 14): 1343 ± 349 mm^3
- Body Weight ([1]; 10 mpk biw, day 0): 23.3 ± 1.4 g
- Tumor Volume ([1]; 10 mpk biw, day 0): 168 ± 6 mm^3
- Body Weight ([1]; 10 mpk biw, day 2): 22.5 ± 1.7 g
- Tumor Volume ([1]; 10 mpk biw, day 2): 209 ± 31 mm^3
- Body Weight ([1]; 10 mpk biw, day 4): 22.4 ± 1.7 g
- Tumor Volume ([1]; 10 mpk biw, day 4): 269 ± 23 mm^3
- Body Weight ([1]; 10 mpk biw, day 7): 22.6 ± 1.9 g
- Tumor Volume ([1]; 10 mpk biw, day 7): 419 ± 22 mm^3
- Body Weight ([1]; 10 mpk biw, day 9): 22.4 ± 1.8 g
- Tumor Volume ([1]; 10 mpk biw, day 9): 442 ± 23 mm^3
- Body Weight ([1]; 10 mpk biw, day 11): 22.3 ± 1.9 g
- Tumor Volume ([1]; 10 mpk biw, day 11): 442 ± 26 mm^3
- Body Weight ([1]; 10 mpk biw, day 14): 22.7 ± 2.0 g
- Tumor Volume ([1]; 10 mpk biw, day 14): 421 ± 31 mm^3
- Best response at 10 mg/kg ([1]; NCI-H1975, 10 mg/kg): CR
- TGI ([1]; NCI-H1975, 1 mpk, biw, day 14): 3.0%
- Tumor Volume ([1]; NCI-H1975, 1 mpk, biw, day 14): 1455 ± 130 mm^3
- TGI ([1]; NCI-H1975, 3 mpk, biw, day 14): 11.2%
- Tumor Volume ([1]; NCI-H1975, 3 mpk, biw, day 14): 1343 ± 349 mm^3
- TGI ([1]; NCI-H1975, 10 mpk, biw, day 14): 80.9%
- Tumor Volume ([1]; NCI-H1975, 10 mpk, biw, day 14): 421 ± 31 mm^3
- Minimally Effective Dose IV BIW ([1]; NCI-H1975, dose leading to tumor-stasis): <10 mg/kg
- tumor volume after regression ([1]; after 4 weeks 10 mg/kg biw): below 50 mm3
- body weight effect ([1]; at PG-D40): marked body weight lost
- tumor response ([2]; 10 mg/kg biw): significant tumor inhibition effect, but didn't cause tumor regression
- Body Weight ([2]; 1 mpk biw, day 0): 21.8 ± 0.5 g
- Tumor Volume ([2]; 1 mpk biw, day 0): 146 ± 5 mm^3
- Body Weight ([2]; 1 mpk biw, day 2): 22.1 ± 0.6 g
- Tumor Volume ([2]; 1 mpk biw, day 2): 159 ± 9 mm^3
- Body Weight ([2]; 1 mpk biw, day 4): 22.1 ± 0.7 g
- Tumor Volume ([2]; 1 mpk biw, day 4): 213 ± 23 mm^3
- Body Weight ([2]; 1 mpk biw, day 7): 22.6 ± 0.5 g
- Tumor Volume ([2]; 1 mpk biw, day 7): 362 ± 34 mm^3
- Body Weight ([2]; 1 mpk biw, day 9): 22.8 ± 0.5 g
- Tumor Volume ([2]; 1 mpk biw, day 9): 470 ± 68 mm^3
- Body Weight ([2]; 1 mpk biw, day 11): 22.6 ± 0.6 g
- Tumor Volume ([2]; 1 mpk biw, day 11): 614 ± 96 mm^3
- Body Weight ([2]; 1 mpk biw, day 14): 23.1 ± 0.8 g
- Tumor Volume ([2]; 1 mpk biw, day 14): 833 ± 126 mm^3
- Body Weight ([2]; 3 mpk biw, day 0): 22.1 ± 0.7 g
- Tumor Volume ([2]; 3 mpk biw, day 0): 147 ± 11 mm^3
- Body Weight ([2]; 3 mpk biw, day 2): 21.9 ± 0.8 g
- Tumor Volume ([2]; 3 mpk biw, day 2): 164 ± 20 mm^3
- Body Weight ([2]; 3 mpk biw, day 4): 21.4 ± 0.6 g
- Tumor Volume ([2]; 3 mpk biw, day 4): 220 ± 23 mm^3
- Body Weight ([2]; 3 mpk biw, day 7): 21.9 ± 0.8 g
- Tumor Volume ([2]; 3 mpk biw, day 7): 365 ± 10 mm^3
- Body Weight ([2]; 3 mpk biw, day 9): 21.4 ± 0.7 g
- Tumor Volume ([2]; 3 mpk biw, day 9): 447 ± 18 mm^3
- Body Weight ([2]; 3 mpk biw, day 11): 20.7 ± 0.8 g
- Tumor Volume ([2]; 3 mpk biw, day 11): 576 ± 19 mm^3
- Body Weight ([2]; 3 mpk biw, day 14): 21.0 ± 0.7 g
- Tumor Volume ([2]; 3 mpk biw, day 14): 724 ± 28 mm^3
- Body Weight ([2]; 10 mpk biw, day 0): 22.0 ± 0.3 g
- Tumor Volume ([2]; 10 mpk biw, day 0): 147 ± 7 mm^3
- Body Weight ([2]; 10 mpk biw, day 2): 21.2 ± 0.1 g
- Tumor Volume ([2]; 10 mpk biw, day 2): 151 ± 10 mm^3
- Body Weight ([2]; 10 mpk biw, day 4): 20.6 ± 0.5 g
- Tumor Volume ([2]; 10 mpk biw, day 4): 190 ± 25 mm^3
- Body Weight ([2]; 10 mpk biw, day 7): 21.1 ± 0.4 g
- Tumor Volume ([2]; 10 mpk biw, day 7): 198 ± 38 mm^3
- Body Weight ([2]; 10 mpk biw, day 9): 19.9 ± 0.3 g
- Tumor Volume ([2]; 10 mpk biw, day 9): 165 ± 42 mm^3
- Body Weight ([2]; 10 mpk biw, day 11): 19.2 ± 0.3 g
- Tumor Volume ([2]; 10 mpk biw, day 11): 155 ± 54 mm^3
- Body Weight ([2]; 10 mpk biw, day 14): 19.6 ± 0.7 g
- Tumor Volume ([2]; 10 mpk biw, day 14): 131 ± 49 mm^3
- Best response at 10 mg/kg ([2]; RPMI2650, 10 mg/kg): PR
- TGI ([2]; RPMI2650, 1 mpk, biw, day 14): 4.5%
- Tumor Volume ([2]; RPMI2650, 1 mpk, biw, day 14): 833 ± 126 mm^3
- TGI ([2]; RPMI2650, 3 mpk, biw, day 14): 19.8%
- Tumor Volume ([2]; RPMI2650, 3 mpk, biw, day 14): 724 ± 28 mm^3
- TGI ([2]; RPMI2650, 10 mpk, biw, day 14): 102.1%
- Tumor Volume ([2]; RPMI2650, 10 mpk, biw, day 14): 131 ± 49 mm^3
- Minimally Effective Dose IV BIW ([2]; RPMI2650, dose leading to tumor-stasis): 10 mg/kg
